The values below come from US10005801B2 (priority 2016, dated 2018).

Several values for one entry are separate records, joined by “and”; a condition that tells them apart may be missing. Equal entries are not always repeated. Entries after “also recorded” stand apart in the source; their conditions may differ. Where two headings read alike, the source gives them in different places.

In one series the test system is H9c2 cardiomyoblasts. The series is described as follows: Anoxia/reoxygenation (A/R)-induced cellular injury, CCK-8 cell viability. Particulars: for protection against A/R-induced cellular damage (cell viability): H9c2, 12, 25 and 50 μM for 1 h during anoxia, then reoxygenation. Format: cell-based. Here is the method: FIG. 3B. […] During anoxia various concentrations of JK-1 and JK-2 were added into medium and incubated for 1 h, respectively. Then the cells underwent a reoxygenation process. After the treatments, the CCK-8 assay was performed to detect cell viability. Data was expressed as the mean±SEM. **P<0.01 vs the control group, #P<0.05, ##P<0.01 vs A/R alone group.
The cell counting kit (CCK)-8 was applied to measure the cell viability of HeLa cells cultured in 96-well plates. After the indicated cell treatment, 100 μL of CCK-8 solution at 1:10 dilution was added to each well and cells were incubated for a further 3 h at 37° C. Absorbance was measured at 450 nm with a microplate reader. The mean optical density (OD) of 4 wells in each group was used to calculate cell viability as follows: (experiments were performed in triplicate)
The effect of H2S as a cardioprotective agent against myocardial ischemia reperfusion (MI/R) injury is known in the art. The mechanisms include reducing oxidative stress, preserving mitochondrial function, decreasing myocardial inflammation, and improving angiogenesis. […] To establish the cellular model of MI/R injury, H9c2 cardiomyoblasts were exposed to anoxia/reoxygenation (A/R) treatment, together with increasing concentrations of H2O2 (100-400 μM). […] Since the median lethal concentration of H2O2 in H9c2 cells was approximately 400 μM, this concentration was used for our studies.
The protective effects of the disclosed compounds against A/R-induced cellular damage was examined. In these experiments, H9c2 cells were pretreated with JK-1 or JK-2 at various concentrations (12, 25 and 50 μM) for 1 h during anoxia. Cells then underwent a reoxygenation process, after which cell viability was analyzed.

The next series deals with HeLa cells. The series is described as follows: H2S production in cells, WSP-5 fluorescent probe imaging. The note with it: 200 μM donor, 1 h. In kind it is cell-based.
Series [1] has as its system myocardial ischemia/reperfusion (MI/R) injury. The series is described as follows: Circulating cardiac troponin I in MI/R murine model. Particulars: 50 μg/kg (p<0.05) or 100 μg/kg (p<0.01), blood at 4 h of reperfusion.
Procedure: Blood was collected at 4 hours of reperfusion, and circulating cardiac troponin I levels were measured.
Surgical occlusion of the left coronary artery (LCA), infarct size determination, and troponin I (TnI) measurements were performed as previously described. ^1C57BL6/J male mice (10-12 weeks of age) were anesthetized using pentobarbital (50 mg/kg) and ketamine (60 mg/kg) and maintained under anesthesia throughout the procedure with additional administration of pentobarbital (50 mg/kg). […] A hair removal compound was used to remove the hair on the chest of mice. The area was then cleaned using betadine and alcohol wipes alternating 3 times. The chest was opened with via a median sternotomy and the exposed ribs, muscle, and tissues were cauterized to prevent bleeding. The LCA was visualized using a dissection microscope with a fiber optic light ring, and using a 7-0 silk suture, a 3-5 mm piece of PE-10 tubing was secured over the LCA, occluding the artery. Mice were subjected to 45 min of myocardial ischemia followed by reperfusion. At the time of reperfusion, an injection of vehicle (saline), JK-1 (50 μg/kg and 100 μg/kg), or JK-2 (50 μg/kg and 100 μg/kg) was given i.c. The chest was closed in layers, closing the muscle layer first, then the skin. Mice were removed from ventilation once pedal reflex returned and it was determined that respiration was spontaneous. Mice were placed in a recovery cage and supplied with 100% O2 via a nose cone. Reperfusion was allowed for 24 h, and blood samples for TnI measurements were taken at 4 h after time of reperfusion.
Blood samples were collected via a tail vein at 4 h of reperfusion. Cardiac troponin I level was measured in serum using the Life Diagnostic high sensitivity mouse cardiac troponin I ELISA kit following the manufacturer's instructions.
Series [2] is classed as physicochemical. Particulars: for H2S release under weak acidic pH: pH 5 and 6, PBS buffer; for H2S release under neutral and weak basic pH: pH 7.4 and 8, PBS buffer.
For series [3], the system named is myocardial ischemia/reperfusion (MI/R) injury. Set-up: species or system mice. The note with it: mouse, in vivo.
Series [4] is described as follows: Circulating free H2S level, gas chromatography and chemiluminescence. The note with it: plasma, 15 minutes after administration, 50 μg/kg (p<0.05) or 100 μg/kg (p<0.001). In kind it is in vivo, mice. Here is the method:
FIG. 5. […] Blood was collected 15 minutes after the administration of JK-2. Circulating free H2S levels were measured from plasma samples using gas chromatography and chemiluminesence methods.

Series [5] deals with TAC-induced heart failure. In words: Transverse aortic constriction (TAC) heart failure model, echocardiography. In kind it is in vivo, C57BL6/J mice. The note with it: 100 μg/kg once daily i.p. from 3 weeks post-TAC, 14 weeks. On the procedure:
FIG. 7. Left ventricular dimensions at end-diastole (LVEDD) and at end-systole in millimeters (mm) at baseline and following heart failure in C57BL6/J mice. Mice were subjected to transverse aortic constriction (TAC) surgery to induce pressure overload hypertrophy and heart failure with reduced ejection fraction. LVEDD and LVESD were measured using high-resolution echocardiography at baseline and every 2 weeks thereafter for a period of 14 weeks. The H2S donor, (JK1) was administered starting at 3 weeks post-TAC at a dose of 100 μg/kg administered once daily via intraperitoneal injection. […] Following heart failure the heart dilates and this adverse remodeling response contributes to reduced cardiac function.
FIG. 8. Interventricular septum thickness measured at end-diastole (IVSd) and at end-systole (IVSs) in millimeters (mm) at baseline and following heart failure in C57BL6/J mice. Mice were subjected to transverse aortic constriction (TAC) surgery to induce pressure overload hypertrophy and heart failure with reduced ejection fraction. IVSd and IVSs were measured using high-resolution echocardiography at baseline and every 2 weeks thereafter for a period of 14 weeks. The H2S donor, (JK1) was administered starting at 3 weeks post-TAC at a dose of 100 μg/kg administered once daily via intraperitoneal injection. […] Myocardial wall thinning is a significant pathological component of heart failure.
(§1) FIG. 9. Left ventricular (LV) posterior wall thickness (PW) measured at end-diastole (d) and at end-systole (s) in millimeters (mm) at baseline and following heart failure in C57BL6/J mice. Mice were subjected to transverse aortic constriction (TAC) surgery to induce pressure overload hypertrophy and heart failure with reduced ejection fraction LVPWd and LVPWs were measured using high-resolution echocardiography at baseline and every 2 weeks thereafter for a period of 14 weeks. The H2S donor, (JK1) was administered starting at 3 weeks post-TAC at a dose of 100 μg/kg administered once daily via intraperitoneal injection.
as §1, with “10.” for “9.”, “ejection fraction (EF)” for “posterior wall thickness (PW) measured at end-diastole (d)”, “fractional shortening (FS)” for “at end-systole (s) in millimeters (mm)”, “fraction. LVEF (%)” for “fraction LVPWd”, “LVFS (%)” for “LVPWs”, “injection. LVEF and LVFS are clinically utilized measures of cardiac function.” for “injection.”

[6] abbreviates: 100 μM donor, PBS buffer pH 5.0, 6.0, 7.4, 8.0, time-dependent.

Regarding `OO` [H2O2, reference compound], the “H2O2 median lethal concentration” value in the series on H9c2 cardiomyoblasts (H9c2 cells, A/R treatment together with H2O2 (100-400 μM)) is “approximately 400 μM”.
Take `O=C([O-])C(Cc1ccccc1)NP([O-])(=S)c1ccccc1.[Li+].[Li+]` (centres unmarked) [JK-2]: the “H2S production in cells (WSP-5 fluorescence)” value with HeLa cells is reported as “strong fluorescence”. Further, the “circulating cardiac troponin I level” value in series [1] is reported as “significantly lowered; also recorded: significantly reduced”. Moreover, the H2S release entry in series [2] (setting [6]) is given as “much-enhanced H2S releasing ability”. Moreover, in series [2], the “H2S release under weak acidic pH” value is given as “much faster release”; the “H2S release under neutral and weak basic pH” value is “slow and sustained H2S release”. In addition, in series [3], the myocardial infarct size result is “significantly reduced”; the “reduction of infarct size per area-at-risk (INF/AAR)” value is 55% and 56%. The “protection against A/R-induced cellular damage (cell viability)” value with H9c2 cardiomyoblasts was “significant attenuation of A/R induced damage”. Also, the “circulating free H2S level” value in series [4] was “significant increase; also recorded: significantly higher”.
With `O=C(O)CNP(O)(=S)c1ccccc1` (centres unmarked) [JK-1], the “H2S production in cells (WSP-5 fluorescence)” value in the series with HeLa cells is “much weaker fluorescence”. In addition, in series [1], the “circulating cardiac troponin I level” value was “significantly lowered; also recorded: significantly reduced”. In series [2] (setting [6]), the H2S release result was “much-enhanced H2S releasing ability”. In series [2], the “H2S release under weak acidic pH” value is listed as “only released H2S under weak acidic pH”; the “H2S release under neutral and weak basic pH” value is “barely detectable H2S”. In addition, in series [3], the myocardial infarct size result was “significantly reduced”; the “reduction of infarct size per area-at-risk (INF/AAR)” value is 43% and 64%. Further, the “protection against A/R-induced cellular damage (cell viability)” value with H9c2 cardiomyoblasts is listed as “significant attenuation of A/R induced damage”. Also, in series [5], the “interventricular septum thickness (IVSd, IVSs)” value was “significantly preserved IVSd and IVSs”; the “left ventricular dilatation (LVEDD, LVESD)” value is recorded as “significantly reduced left ventricular dilatation”; the “left ventricular ejection fraction (LVEF) and fractional shortening (LVFS)” value is “significantly preserved both LVEF and LVFS”; the “left ventricular posterior wall thickness (LVPWd, LVPWs)” value is “significantly preserved left ventricular wall thickness”.
For the compound `O=C([O-])C1CCCN1P([O-])(=S)c1ccccc1.[Li+].[Li+]` (centres unmarked) [JK-5], the H2S release result in series [2] (pH 5) is given as “not to release H2S at all”.
